This is an account of results in BindingDB's records for doi:10.1111/j.1600-0773.1998.tb01469.x (Case Western Reserve University, 1998).

This test concerns the target T1, Muscarinic acetylcholine receptor M4 (Homo sapiens, UniProt P08173).
T1 sequence (P08173 whole entry): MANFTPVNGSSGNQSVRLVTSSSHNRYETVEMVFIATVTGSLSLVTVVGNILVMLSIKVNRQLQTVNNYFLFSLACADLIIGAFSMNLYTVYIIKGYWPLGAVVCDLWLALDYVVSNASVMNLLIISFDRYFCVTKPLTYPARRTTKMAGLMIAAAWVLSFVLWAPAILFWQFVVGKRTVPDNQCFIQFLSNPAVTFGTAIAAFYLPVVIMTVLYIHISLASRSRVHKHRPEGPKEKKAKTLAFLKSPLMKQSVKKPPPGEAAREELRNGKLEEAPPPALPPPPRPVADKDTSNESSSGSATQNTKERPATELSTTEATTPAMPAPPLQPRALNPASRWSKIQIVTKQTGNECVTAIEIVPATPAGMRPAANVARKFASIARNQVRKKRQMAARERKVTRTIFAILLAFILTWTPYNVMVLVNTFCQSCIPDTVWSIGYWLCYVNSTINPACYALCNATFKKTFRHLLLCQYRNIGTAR

pKi: −log10 of the molar value. “And” between values parts separate entries of the source, which are not always exact repeats. Equal entries are not always repeated.

As usually defined, the pKi is −log10 of the Ki, conventionally taken in molar units. `O[Si](CCCN1CCCCC1)(c1ccccc1)C1CCCCC1` (configuration not stated) [HHSiD]: the pKi is 8.38 and 7.78.
The result for `COc1ccccc1CNCCCCCCNCCCCCCCCNCCCCCCNCc1ccccc1OC` [METHOCTRAMINE] reads 7.18 and 7.14.
